Data: paper PMC5607274, “An iterative compound screening contest method for identifying target protein inhibitors using the tyrosine-protein kinase Yes” (Scientific Reports, 2017)

Target: T1, human recombinant Yes [a.a. 2–543 (end)] (Homo sapiens, UniProt P07947)
T1 construct: human recombinant Yes [a.a; 2–543 (end)]; purchased BPS Bioscience 40488
Assay: ADP-Glo kinase assay, inhibition rates of Yes phosphorylation activity (first and second screening)
Type: biochemical
Conditions: 10 μmol L−1 compound; for First screening IR (inhibition rate): mean of n = 4 wells; for Second screening IR (inhibition rate): dissolved from fresh powder, n = 4
Outline: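 Hits from a first pass were rescreened after re-dissolution from fresh powder. The first pass reported the mean inhibition rate of quadruplicate wells per compound. Activity was that of recombinant human Yes [a.a. 2–543] kinase, read out with the ADP-Glo ADP-detection method.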

T1 sequence (P07947 2-543): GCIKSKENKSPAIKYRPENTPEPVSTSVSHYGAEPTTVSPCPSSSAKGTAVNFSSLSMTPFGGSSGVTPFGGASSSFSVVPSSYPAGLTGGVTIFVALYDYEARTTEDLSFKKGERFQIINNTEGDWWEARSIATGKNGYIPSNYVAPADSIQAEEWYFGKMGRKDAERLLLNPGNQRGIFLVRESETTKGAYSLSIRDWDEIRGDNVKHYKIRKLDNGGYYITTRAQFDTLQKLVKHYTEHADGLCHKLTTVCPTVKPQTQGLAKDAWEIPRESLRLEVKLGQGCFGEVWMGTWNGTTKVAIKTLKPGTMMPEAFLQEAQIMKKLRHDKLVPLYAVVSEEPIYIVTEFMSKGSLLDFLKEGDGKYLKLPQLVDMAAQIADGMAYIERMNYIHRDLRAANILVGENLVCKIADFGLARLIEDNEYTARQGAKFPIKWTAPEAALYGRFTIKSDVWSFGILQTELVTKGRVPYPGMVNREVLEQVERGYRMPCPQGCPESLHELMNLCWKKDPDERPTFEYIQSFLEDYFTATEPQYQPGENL

Row | SMILES | First screening IR (inhibition rate) | Second screening IR (inhibition rate)
1 | CN1C/C(=C/c2ccc(SC(F)(F)F)cc2)c2nc3ccccc3c(C(=O)O)c2C1 [Compound Z196352976] | -14% | –
2 | Cc1cccc(C)c1N=C1SC(C(=O)Nc2ccc(OC(F)F)cc2)C(N)=C1C(=O)N1CCN(C)CC1 (stereo not drawn) [Compound Z56863426] | 15% | –
3 | O=C1CN(c2nc(C(F)(F)F)nc3ccsc23)CCN1 [Compound Z370715174] | 26% | –
4 | O=C(NCc1cnn(Cc2ccccc2)c1)Nc1ccncc1F [Compound Z1677761301] | 4% | –
5 | c1ccc(-c2nc(Sc3n[nH]c(-c4ccncc4)n3)nc3ccccc23)cc1 [Compound Z271700602] | -1% | –
6 | O=C1Nc2cc(Cl)ccc2/C1=C\c1cnn(-c2ccccc2)c1 [Compound Z95046696] | 4% | –
7 | CC(C)CCc1nc(CN2C(=O)NC3(CCN(C(=O)OC(C)(C)C)CC3)C2=O)cs1 [Compound Z1262256786] | -2% | –
8 | Cc1ccccc1-c1cc(C(N)=O)c2cnn(C(C)C)c2n1 [Compound Z229615400] | 14% | –
9 | CCOC(=O)c1[nH]c(C)c(C(=O)CSc2n[nH]c(-c3ccccc3)n2)c1C [Compound Z225443610] | -8% | –
10 | CCCN(CCC)S(=O)(=O)c1ccc(S(C)(=O)=O)cc1 [Compound Z285665192] | 14% | –
11 | Cc1c(C#N)c(NC(=O)CN2CCC(n3c(=O)[nH]c4ccccc43)CC2)n(Cc2cccs2)c1C [Compound Z130194258] | 22% | –
12 | CC(O)(CNc1ccnc2c(F)cc(Br)cc12)CN1CCOCC1 (stereo not drawn) [Compound Z1601616896] | -21% | –
13 | Cn1nc(Br)c2c(N3CCCC34CCCCC4)ncnc21 [Compound Z1527076521] | 38% | –
14 | Cc1c(-c2ccc(O)cc2)nc2ccc(Cl)cc2c1-c1ccccc1F.Cl [Compound Z48955845] | 3% | –
15 | Cc1nn(C)c2ncc(NC(=O)c3cc(-c4ccco4)nc4onc(C)c34)cc12 [Compound Z239539964] | 1% | –
16 | CN1/C(=C\C(=O)CN2C(=O)NC3(CCCc4sccc43)C2=O)C(C)(C)c2ccccc21 (stereo not drawn) [Compound Z54813762] | -20% | –
17 | CS(=O)(=O)c1ccccc1S(=O)(=O)Cl [Compound Z271096440] | 59% | 2%
18 | Cc1ccc(S(=O)(=O)N2CCN(S(=O)(=O)c3ccc(C)c(C)c3)CC2)cc1C [Compound Z45415135] | -5% | –
19 | COC(=O)c1ccc2c(=O)[nH]c(COC(=O)Cc3ccsc3)nc2c1 [Compound Z54469331] | 2% | –
20 | COc1ccc(C(=O)N2CCCC2)cc1NC(=O)CC1CCCC1 [Compound Z913725738] | 7% | –
21 | Cc1cccc(NC(=O)C2CCCN(c3nc(CN4CCOCC4)nc4sc(C)c(C)c34)C2)n1 (stereo not drawn) [Compound Z573238670] | -5% | –
22 | O=C(Cc1ccc(F)cc1)N1CCN(S(=O)(=O)Cc2ccccc2)CC1 [Compound Z28905033] | -2% | –
23 | CC1=C(C(=O)N(C)C)C(c2ccc(-c3c(F)cccc3F)o2)NC(=S)N1 (stereo not drawn) [Compound Z1211655765] | 1% | –

Row | SMILES | First screening IR (inhibition rate) | Second screening IR (inhibition rate)
24 | CC(C)C(=O)N1CCC(Nc2ncnc3c2cnn3CCC#N)CC1 [Compound Z990868196] | -8% | –
25 | O=C1COc2ccc(C(=O)/C=C/c3ccc(OC(F)F)cc3)cc2N1 [Compound Z94572736] | 3% | –
26 | Cc1cc(C)n(-c2nc(-c3cccnc3)nc3ccccc23)n1 [Compound Z56839033] | 12% | –
27 | CCN(CCC#N)S(=O)(=O)c1cccc(S(C)(=O)=O)c1 [Compound Z1116704440] | -6% | –
28 | Cc1noc(C)c1S(=O)(=O)N1CCN(C(=O)CCc2c(C)[nH]c(=O)c(C#N)c2C)CC1 [Compound Z115241120] | 12% | –
29 | Cc1sc2ncnc(SCC(=O)Nc3ncc(Cl)c(C)c3Cl)c2c1C [Compound Z20229401] | -1% | –
30 | NC(=O)Nc1ccc(C(=O)NCCC(c2ccccc2)c2ccccc2)cc1 [Compound Z26815125] | -8% | –
31 | O=C(NCCSc1ccc(Br)cc1)c1ccc2nc[nH]c2c1 [Compound Z30463043] | 7% | –
32 | O=C(CN1CCN(Cc2nc3scc(-c4ccc(F)cc4)c3c(=O)[nH]2)CC1)N1CCCCCC1 [Compound Z126042696] | 22% | –
33 | CC(C)(C)c1nccc(Nc2cn[nH]c2)n1 [Compound Z1317605702] | 42% | 7%
34 | COCCN1C(=O)/C(=C/c2c(N3CCN(Cc4ccccc4)CC3)nc3ccc(C)cn3c2=O)SC1=S [Compound Z56850824] | -11% | –
35 | CC(C)(C)C1CCC(C(=O)Nc2nc(-c3ccccn3)cs2)CC1 (stereo not drawn) [Compound Z29467784] | 7% | –
36 | O=C(CSc1nnc(-c2cccnc2)n1C1CC1)Nc1nc(-c2ccc(F)cc2)cs1 [Compound Z92534919] | 10% | –
37 | COc1cc(/C=C2/C(=O)Nc3ccc(Cl)cc32)cc(Cl)c1OC(F)F [Compound Z44304760] | 4% | –
38 | CN(C1CCCCCC1)S(=O)(=O)c1cccc(S(C)(=O)=O)c1 [Compound Z300508876] | -7% | –
39 | CN(C1CCCCC1)S(=O)(=O)N1CCN(c2cn[nH]c(=O)c2Cl)CC1 [Compound Z357945110] | -10% | –
40 | Cc1cc(N2CCCC(N3CCN(C(=O)c4ccncc4)CC3)C2=O)n(C)n1 (stereo not drawn) [Compound Z1629496420] | 17% | –
41 | O=C(NC1(C(F)(F)F)Oc2ccccc2O1)Sc1ccccc1 [Compound Z56864837] | 42% | –
42 | CC(C)c1cccc(N(C)C(=O)c2cccnc2S(=O)(=O)C(F)(F)F)c1 [Compound Z959760312] | 32% | –
43 | O=c1[nH]c(SCc2coc(-c3ccccc3)n2)nc2sccc12 [Compound Z228473210] | -4% | –
44 | Clc1ccc(Oc2cccc(-c3nc4c5ccccc5c5ccccc5c4[nH]3)c2)cc1 [Compound Z57984419] | 2% | –
45 | COCCOc1ccc(CNc2ncnc3ccccc23)cn1 [Compound Z645525338] | -2% | –
46 | O=C(OCc1ccc(-n2ccnc2)nc1)c1ccc([N+](=O)[O-])cc1 [Compound Z1352068858] | 7% | –

Row | SMILES | First screening IR (inhibition rate) | Second screening IR (inhibition rate)
47 | Cc1nccn1-c1cncc(NCc2cc(-c3ccccc3)on2)n1 [Compound Z1798299891] | 19% | –
48 | O=C(COc1ccccc1F)NCc1ccc2[nH]c(=O)[nH]c2c1 [Compound Z1654002148] | 3% | –
49 | CC(C)(C)Cc1cc(NC(=O)c2cnn(-c3ccccc3Cl)c2)n[nH]1 [Compound Z1262045135] | 70% | 21%
50 | Nc1c(Cl)cc(Nc2nccc(C(F)(F)F)n2)cc1Cl [Compound Z318854232] | 7% | –
51 | COc1ccc2ccc(OCc3nc(N)nc(N(C)C)n3)cc2c1 [Compound Z168975100] | 6% | –
52 | CN(C)S(=O)(=O)c1ccc(CS(=O)(=O)C2CCCC2)o1 [Compound Z1147565999] | -1% | –
53 | Cc1ccc2c(c1)/C(=N/n1cnc3ccccc31)C(=O)N2 [Compound Z56789395] | 3% | –
54 | CCN(CC)C(=O)c1ccc(NS(=O)(=O)c2cc3c(cc2Cl)NC(=O)C3)cc1 [Compound Z1037385644] | -4% | –
55 | CS(=O)(=O)c1ccc(N2CCC2)c(S(C)(=O)=O)c1 [Compound Z666133744] | 8% | –
56 | CCCCCn1c(N)c(C(=O)NCCN2CCOCC2)c2nc3ccccc3nc21 [Compound Z56872965] | 48% | –
57 | Cc1cc(-c2cc(C(=O)Nc3ccc(N4CCN(C)CC4)nc3)c3cnn(C(C)C)c3n2)c(C)o1 [Compound Z228220646] | 15% | –
58 | CC(c1ccc(S(N)(=O)=O)cc1)N(C)S(=O)(=O)c1cc(Cl)cc(Cl)c1 (stereo not drawn) [Compound Z65599853] | 0% | –
59 | Cc1cc(SCC(=O)NC(=O)NC2CCCC2)nc2ccccc12 [Compound Z20243594] | 8% | –
60 | COC(=O)c1c(Nc2nc3ccccc3nc2N2CCN(C/C=C/c3ccccc3)CC2)sc(C)c1C [Compound Z56867786] | 11% | –
61 | CCN(CC)c1ccc(C(=O)NC(=S)Nc2nc(-c3cccs3)cs2)cc1 [Compound Z56787522] | -9% | –
62 | CCCN1CCN(c2ccc(Nc3ccc4nnnn4n3)cc2Cl)CC1 [Compound Z815791244] | -24% | –
63 | CCCCn1c(CN2CCN(C(=O)C3CCCO3)CC2)nc2c1c(=O)[nH]c(=O)n2Cc1ccccc1 (stereo not drawn) [Compound Z105965792] | 1% | –
64 | C=CCN(CC=C)S(=O)(=O)c1cc(C)cc(S(C)(=O)=O)c1C [Compound Z1145185872] | 4% | –
65 | CCN(C1CCS(=O)(=O)C1)S(=O)(=O)c1ccc(Cl)c(Cl)c1 (stereo not drawn) [Compound Z45467101] | 12% | –
66 | O=C(c1cc(Cc2ccccc2)ccc1O)N1CCN(Cc2ccon2)CC1 [Compound Z1285074692] | 21% | –
67 | COc1ccc(S(=O)(=O)N[C@@H](C)C(=O)N2CC=C(c3c(OC)cc(OC)cc3OC)CC2)cc1 [Compound Z203177000] | 0% | –
68 | Cn1c(SCC(=O)N2c3ccccc3OCC2c2ccccc2)nnc1-c1ccncc1 (stereo not drawn) [Compound Z65769442] | -1% | –
69 | CN(C)S(=O)(=O)c1ccc(Cl)c(S(=O)(=O)N(C)C)c1 [Compound Z56877204] | 7% | –
